Measurements: PubChem BioAssay AID1259407 (Chemical Carcinogenesis Research Information System (CCRIS), 2018)
Calls of active or inactive are those of the source. No rule for the calls is given here.

Tested on: CCRIS mutagenicity, Ames/micronucleus/aberration tests
Experiment: CCRIS mutagenicity studies
[1] = Test System: AMES SALMONELLA TYPHIMURIUM, Strain/Indicator: TA98, Metabolic Activation: NONE, Method: PREINCUBATION
[2] = Test System: AMES SALMONELLA TYPHIMURIUM, Strain/Indicator: TA100, Metabolic Activation: NONE, Method: PREINCUBATION
[3] = Test System: AMES SALMONELLA TYPHIMURIUM, Strain/Indicator: TA1535, Metabolic Activation: NONE, Method: PREINCUBATION
[4] = Test System: AMES SALMONELLA TYPHIMURIUM, Strain/Indicator: TA1537, Metabolic Activation: NONE, Method: PREINCUBATION

## C=C(C)C(=O)OCCCC
Test System: AMES SALMONELLA TYPHIMURIUM, Strain/Indicator: TA98, Metabolic Activation: HAMSTER, LIVER, S-9, AROCLOR 1254 (10%), Method: PREINCUBATION
  mutagenic call: inactive; negative
[1]
  mutagenic call: inactive; negative
Test System: AMES SALMONELLA TYPHIMURIUM, Strain/Indicator: TA98, Metabolic Activation: NONE, Method: STANDARD PLATE
  mutagenic call: inactive; negative
Test System: AMES SALMONELLA TYPHIMURIUM, Strain/Indicator: TA98, Metabolic Activation: RAT LIVER S-9, PHENOBARBITAL AND BETA-NAPHTHOFLAVONE, Method: PREINCUBATION
  mutagenic call: inactive; negative
Test System: AMES SALMONELLA TYPHIMURIUM, Strain/Indicator: TA98, Metabolic Activation: RAT, LIVER, S-9, AROCLOR 1254 (10%), Method: PREINCUBATION
  mutagenic call: inactive; negative
Test System: AMES SALMONELLA TYPHIMURIUM, Strain/Indicator: TA98, Metabolic Activation: RAT, LIVER, S-9, AROCLOR 1254, Method: STANDARD PLATE
  mutagenic call: inactive; negative
Test System: AMES SALMONELLA TYPHIMURIUM, Strain/Indicator: TA98, Metabolic Activation: RAT, LIVER, S-9, SODIUM PHENOBARBITAL, Method: STANDARD PLATE
  mutagenic call: inactive; negative
Test System: AMES SALMONELLA TYPHIMURIUM, Strain/Indicator: TA100, Metabolic Activation: HAMSTER, LIVER, S-9, AROCLOR 1254 (10%), Method: PREINCUBATION
  mutagenic call: inactive; negative
[2]
  mutagenic call: inactive; negative
Test System: AMES SALMONELLA TYPHIMURIUM, Strain/Indicator: TA100, Metabolic Activation: NONE, Method: STANDARD PLATE
  mutagenic call: inactive; negative
Test System: AMES SALMONELLA TYPHIMURIUM, Strain/Indicator: TA100, Metabolic Activation: RAT LIVER S-9, PHENOBARBITAL AND BETA-NAPHTHOFLAVONE, Method: PREINCUBATION
  mutagenic call: inactive; negative
Test System: AMES SALMONELLA TYPHIMURIUM, Strain/Indicator: TA100, Metabolic Activation: RAT, LIVER, S-9, AROCLOR 1254 (10%), Method: PREINCUBATION
  mutagenic call: inactive; negative
Test System: AMES SALMONELLA TYPHIMURIUM, Strain/Indicator: TA100, Metabolic Activation: RAT, LIVER, S-9, AROCLOR 1254, Method: STANDARD PLATE
  mutagenic call: inactive; negative
Test System: AMES SALMONELLA TYPHIMURIUM, Strain/Indicator: TA100, Metabolic Activation: RAT, LIVER, S-9, SODIUM PHENOBARBITAL, Method: STANDARD PLATE
  mutagenic call: inactive; negative
Test System: AMES SALMONELLA TYPHIMURIUM, Strain/Indicator: TA1535, Metabolic Activation: HAMSTER, LIVER, S-9, AROCLOR 1254 (10%), Method: PREINCUBATION
  mutagenic call: inactive; negative
[3]
  mutagenic call: inactive; negative
Test System: AMES SALMONELLA TYPHIMURIUM, Strain/Indicator: TA1535, Metabolic Activation: NONE, Method: STANDARD PLATE
  mutagenic call: inactive; negative
Test System: AMES SALMONELLA TYPHIMURIUM, Strain/Indicator: TA1535, Metabolic Activation: RAT LIVER S-9, PHENOBARBITAL AND BETA-NAPHTHOFLAVONE, Method: PREINCUBATION
  mutagenic call: inactive; negative
Test System: AMES SALMONELLA TYPHIMURIUM, Strain/Indicator: TA1535, Metabolic Activation: RAT, LIVER, S-9, AROCLOR 1254 (10%), Method: PREINCUBATION
  mutagenic call: inactive; negative
Test System: AMES SALMONELLA TYPHIMURIUM, Strain/Indicator: TA1535, Metabolic Activation: RAT, LIVER, S-9, AROCLOR 1254, Method: STANDARD PLATE
  mutagenic call: inactive; negative
Test System: AMES SALMONELLA TYPHIMURIUM, Strain/Indicator: TA1535, Metabolic Activation: RAT, LIVER, S-9, SODIUM PHENOBARBITAL, Method: STANDARD PLATE
  mutagenic call: inactive; negative
Test System: AMES SALMONELLA TYPHIMURIUM, Strain/Indicator: TA1537, Metabolic Activation: HAMSTER, LIVER, S-9, AROCLOR 1254 (10%), Method: PREINCUBATION
  mutagenic call: inactive; negative
[4]
  mutagenic call: inactive; negative
Test System: AMES SALMONELLA TYPHIMURIUM, Strain/Indicator: TA1537, Metabolic Activation: NONE, Method: STANDARD PLATE
  mutagenic call: inactive; negative
Test System: AMES SALMONELLA TYPHIMURIUM, Strain/Indicator: TA1537, Metabolic Activation: RAT LIVER S-9, PHENOBARBITAL AND BETA-NAPHTHOFLAVONE, Method: PREINCUBATION
  mutagenic call: inactive; negative
Test System: AMES SALMONELLA TYPHIMURIUM, Strain/Indicator: TA1537, Metabolic Activation: RAT, LIVER, S-9, AROCLOR 1254 (10%), Method: PREINCUBATION
  mutagenic call: inactive; negative
Test System: AMES SALMONELLA TYPHIMURIUM, Strain/Indicator: TA1537, Metabolic Activation: RAT, LIVER, S-9, AROCLOR 1254, Method: STANDARD PLATE
  mutagenic call: inactive; negative
Test System: AMES SALMONELLA TYPHIMURIUM, Strain/Indicator: TA1537, Metabolic Activation: RAT, LIVER, S-9, SODIUM PHENOBARBITAL, Method: STANDARD PLATE
  mutagenic call: inactive; negative
Test System: AMES SALMONELLA TYPHIMURIUM, Strain/Indicator: TA1538, Metabolic Activation: NONE, Method: STANDARD PLATE
  mutagenic call: inactive; negative
Test System: AMES SALMONELLA TYPHIMURIUM, Strain/Indicator: TA1538, Metabolic Activation: RAT, LIVER, S-9, AROCLOR 1254, Method: STANDARD PLATE
  mutagenic call: inactive; negative
Test System: AMES SALMONELLA TYPHIMURIUM, Strain/Indicator: TA1538, Metabolic Activation: RAT, LIVER, S-9, SODIUM PHENOBARBITAL, Method: STANDARD PLATE
  mutagenic call: inactive; negative
Test System: E.COLI, Strain/Indicator: WP2UVRA/PKM101, Metabolic Activation: NONE, Method: PREINCUBATION
  mutagenic call: inactive; negative
Test System: E.COLI, Strain/Indicator: WP2UVRA/PKM101, Metabolic Activation: RAT LIVER S-9, PHENOBARBITAL AND BETA-NAPHTHOFLAVONE, Method: PREINCUBATION
  mutagenic call: inactive; negative

## COC(=O)C1=C(C)NC(C)=C(C(=O)OC/C=C/c2ccccc2)C1c1cccc([N+](=O)[O-])c1 (stereo not given)
[1]
  mutagenic call: inactive; negative
Test System: AMES SALMONELLA TYPHIMURIUM, Strain/Indicator: TA98, Metabolic Activation: RAT, LIVER, S-9, PHENOBARBITAL AND 5,6-BENZOFLAVONE, Method: PREINCUBATION
  mutagenic call: inactive; negative
[2]
  mutagenic call: inactive; negative
Test System: AMES SALMONELLA TYPHIMURIUM, Strain/Indicator: TA100, Metabolic Activation: RAT, LIVER, S-9, PHENOBARBITAL AND 5,6-BENZOFLAVONE, Method: PREINCUBATION
  mutagenic call: inactive; negative
[3]
  mutagenic call: inactive; negative
Test System: AMES SALMONELLA TYPHIMURIUM, Strain/Indicator: TA1535, Metabolic Activation: RAT, LIVER, S-9, PHENOBARBITAL AND 5,6-BENZOFLAVONE, Method: PREINCUBATION
  mutagenic call: inactive; negative
[4]
  mutagenic call: inactive; negative
Test System: AMES SALMONELLA TYPHIMURIUM, Strain/Indicator: TA1537, Metabolic Activation: RAT, LIVER, S-9, PHENOBARBITAL AND 5,6-BENZOFLAVONE, Method: PREINCUBATION
  mutagenic call: inactive; negative
Test System: E. COLI, Strain/Indicator: WP2 UVRA, Metabolic Activation: NONE, Method: PREINCUBATION
  mutagenic call: inactive; negative
Test System: E. COLI, Strain/Indicator: WP2 UVRA, Metabolic Activation: RAT, LIVER, S-9, PHENOBARBITAL AND 5,6-BENZOFLAVONE, Method: PREINCUBATION
  mutagenic call: inactive; negative

## CC1(C)[C@H](C(=O)O[C@H](C#N)c2cccc(Oc3ccccc3)c2)[C@@H]1C(Br)C(Br)(Br)Br (stereo not given in full)
End Point: In vivo chromosomal aberrations, Test System: Bone marrow cells, Species: Rat, Strain/Sex: Sprague Dawley CD, Route: Gavage
  mutagenic call: inactive; negative
Test System: Ames Salmonella typhimurium, Strain/Indicator: TA98, Metabolic Activation: None
  mutagenic call: inactive; negative (precipitation above 100 ug/plate)
Test System: Ames Salmonella typhimurium, Strain/Indicator: TA98, Metabolic Activation: Rat, Liver, S-9, Aroclor 1254
  mutagenic call: inactive; negative (precipitation above 100 ug/plate)
Test System: Ames Salmonella typhimurium, Strain/Indicator: TA100, Metabolic Activation: None
  mutagenic call: inactive; negative (precipitation above 100 ug/plate)
Test System: Ames Salmonella typhimurium, Strain/Indicator: TA100, Metabolic Activation: Rat, Liver, S-9, Aroclor 1254
  mutagenic call: inactive; negative (precipitation above 100 ug/plate)
Test System: Ames Salmonella typhimurium, Strain/Indicator: TA1535, Metabolic Activation: None
  mutagenic call: inactive; negative (precipitation above 100 ug/plate)
Test System: Ames Salmonella typhimurium, Strain/Indicator: TA1535, Metabolic Activation: Rat, Liver, S-9, Aroclor 1254
  mutagenic call: inactive; negative (precipitation above 100 ug/plate)
Test System: Ames Salmonella typhimurium, Strain/Indicator: TA1537, Metabolic Activation: None
  mutagenic call: inactive; negative (precipitation above 100 ug/plate)
Test System: Ames Salmonella typhimurium, Strain/Indicator: TA1537, Metabolic Activation: Rat, Liver, S-9, Aroclor 1254
  mutagenic call: inactive; negative (precipitation above 100 ug/plate)
Test System: Ames Salmonella typhimurium, Strain/Indicator: TA1538, Metabolic Activation: None
  mutagenic call: inactive; negative (precipitation above 100 ug/plate)
Test System: Ames Salmonella typhimurium, Strain/Indicator: TA1538, Metabolic Activation: Rat, Liver, S-9, Aroclor 1254
  mutagenic call: inactive; negative (precipitation above 100 ug/plate)

## c1ccc2c(c1)cc1c3cccc4cccc(c5cccc2c51)c43
Test System: HUMAN H1A1V2 CELLS, Strain/Indicator: TK LOCUS, Metabolic Activation: NONE, Method: SUSPENSION/PLATE
  mutagenic call: active; positive
